Measurements reported in US8569374B2, “NADPH oxidase inhibition pharmacotherapies for obstructive sleep apnea syndrome and its associated morbidities” (The Trustees of the University of Pennsylvania, priority 2004, dated 2013).
“Also recorded” adds a separate entry of the source.

Tests used:
[1] = tested on: iNOS; test: iNOS activity in lateral basal forebrain homogenates ([14C] L-arginine to L-citrulline conversion); type: in vivo, mice; details: for LTIH increase in iNOS activity: apocynin throughout LTIH
Procedure: FIG. 5. NADPH oxidase inhibition confers resistance to the long-term intermittent hypoxia (LTIH) proinflammatory response. Proinflammatory gene expression was measured in micropunches in the lateral basal forebrains in gp91^phox wild type controls (gp91^phox WT, n=10) and gp91^phox null mice (gp91^phox null, n=10) for A, TNF-a; B, COX-2 and C, iNOS mRNA copies/2 µg total RNA. D. Total NOS activity (left columns), measured as L-arginine conversion of [^14C] L-arginine to L-citrulline and iNOS activity (right columns) was measured using […] S-Ethyl-N-[4-trifluoromethyl)phenyl]isothiourea (ETPI) added to homogenates (12). […] A detailed description of the long-term intermittent hypoxia (LTIH) protocol was recently published. An automated nitrogen/oxygen delivery profile system (Oxycycler model A84XOV; Biospherix, Redfield, N.Y.) produced brief reductions in housing chamber ambient oxygen levels from 21% to 10% for 5 sec every 90 sec, resulting in arterial oxyhemoglobin saturation fluctuations between 95-98% and 83-86%. Sham LTIH, with ambient FIO2 fluctuations from 21% to 19% every 90 sec, held arterial oxyhemoglobin values constant between 96-98%. Both conditions were produced for 10 hr of the lights-on period for a total of 8 wks. Humidity, ambient CO2 and environmental temperature were held constant. To determine if NADPH oxidase inhibition would also prevent LTIH gene responses, a third series of mice examined for gene responses were WT mice treated systemically throughout LTIH or sham LTIH with 3 mg/kg/day apocynin (Sigma-Aldrich) in DMSO, DMSO or PBS delivered subcutaneously (n=10/group) by way of micro-osmotic pump (1002, Durect, Cupertino, Calif.). […] Lateral basal forebrain iNOS activity was compared in mice treated with or without apocynin throughout LTIH (FIG. 5D). Apocynin therapy, relative to saline therapy had no effect on baseline (sham LTIH) iNOS activity. […] Thus, apocynin therapy throughout LTIH prevented the expected increase in iNOS activity.

[2] = tested on: iNOS mRNA; test: Taqman real-time PCR of iNOS gene response to LTIH, lateral basal forebrain; type: in vivo, mice; details: apocynin throughout LTIH
Description: (§1) A detailed description of the long-term intermittent hypoxia (LTIH) protocol was recently published. An automated nitrogen/oxygen delivery profile system (Oxycycler model A84XOV; Biospherix, Redfield, N.Y.) produced brief reductions in housing chamber ambient oxygen levels from 21% to 10% for 5 sec every 90 sec, resulting in arterial oxyhemoglobin saturation fluctuations between 95-98% and 83-86%. Sham LTIH, with ambient FIO2 fluctuations from 21% to 19% every 90 sec, held arterial oxyhemoglobin values constant between 96-98%. Both conditions were produced for 10 hr of the lights-on period for a total of 8 wks. Humidity, ambient CO2 and environmental temperature were held constant. To determine if LTIH results in lasting increases in NADPH oxidase and microglial gene responses, real-time Taqman PCR was performed on laser-captured microdissections or macropunches of selected brain regions in mice exposed to sham LTIH or LTIH, two weeks into recovery to parallel sleep studies, using our methods, as previously published (12, 25). Real-time measurement of a NADPH oxidase subunit (p67^phox). […]

[3] = tested on: WT mice exposed to LTIH; test: Sleep/wake recordings and murine multiple sleep latency test after long-term intermittent hypoxia (LTIH); type: in vivo; details: for sleep latency: vs LTIH DMSO vehicle-treated mice
Description: Ten-week old male C57BL/6J (B6) mice, gp91^phox−/− mice (B6.129S6-Cybb^tmldin) backcrossed 12 generations to C57BL/6J 000664 and gp91^phox+/+ (WT) backcrossed substrain C57BL/6J 000664 mice (Jackson Laboratory, Bar Harbor, Me.) were studied. Methods and study protocols were approved in full by the Institutional Animal Care and Use Committee of the University of Pennsylvania, conforming with the revised NIH Office of Laboratory Animal Welfare Policy. Food and water were provided ad libitum. Mice were confirmed pathogen free at the time of studies.
A detailed description of the long-term intermittent hypoxia (LTIH) protocol was recently published. An automated nitrogen/oxygen delivery profile system (Oxycycler model A84XOV; Biospherix, Redfield, N.Y.) produced brief reductions in housing chamber ambient oxygen levels from 21% to 10% for 5 sec every 90 sec, resulting in arterial oxyhemoglobin saturation fluctuations between 95-98% and 83-86%. Sham LTIH, with ambient FIO2 fluctuations from 21% to 19% every 90 sec, held arterial oxyhemoglobin values constant between 96-98%. Both conditions were produced for 10 hr of the lights-on period for a total of 8 wks. Humidity, ambient CO2 and environmental temperature were held constant.
To determine if NADPH oxidase inhibition would also prevent LTIH gene responses, a third series of mice examined for gene responses were WT mice treated systemically throughout LTIH or sham LTIH with 3 mg/kg/day apocynin (Sigma-Aldrich) in DMSO, DMSO or PBS delivered subcutaneously (n=10/group) by way of micro-osmotic pump (1002, Durect, Cupertino, Calif.).
After 8 wks of LTIH or sham LTIH exposures, mice were returned to normoxic conditions for 1 wk. Surgical implantation of electrodes and electrophysiological recordings followed using previously described electrode implantation methods (32). Following 3 d post-operative recovery, mice were connected to recording cables in individual cages, and 4 d later sleep recordings were initiated (beginning 2 wk into recovery from LTIH). Baseline sleep was recorded for 5 days. On recording day 6, a baseline murine multiple sleep latency test (MMSLT) was performed (4 nap opportunities between 2 p.m. and 4 p.m.) to measure baseline sleep propensity (33). On recording day 7, sleep deprivation was performed for 6 hours of the light period (8 a.m. to 2 p.m.), followed by a second MSLT and then recovery sleep was recorded for 12 h. The behavioral state acquisition and analysis program used for these studies was ACQ 3.4 (34), with modifications and behavioral state parameters as previously described (7, 9, 32). Primary variables were total sleep time/24 hr, total NREM sleep time/24 hr and REM sleep time/24 hr, and average sleep latency, before and after short-term sleep loss.
To further investigate the role of NADPH oxidase in the LTIH-induced hypersomnolence and sleepiness, a series of WT mice were implanted with osmotic pumps to systemically deliver either a selective NADPH oxidase inhibitor, apocynin at 3 mg/kg/day, vehicle (dimethylsulfoxide, DMSO) or buffered saline throughout LTIH exposure for 8 wks. Pumps were removed and mice were implanted for sleep recordings as described above for studies in gp91^phox null mice. Apocynin therapy prevented both LTIH reduced wake times and shortened sleep latency.

[4] = tested on: COX-2 mRNA; test: Taqman real-time PCR of COX-2 gene response to LTIH, lateral basal forebrain; type: in vivo, mice; details: apocynin in DMSO vehicle throughout LTIH
Description: as §1

[5] = tested on: TNF-α mRNA; test: Taqman real-time PCR of TNF-α gene response to LTIH, lateral basal forebrain; type: in vivo, mice
Description: A detailed description of the long-term intermittent hypoxia (LTIH) protocol was recently published. An automated nitrogen/oxygen delivery profile system (Oxycycler model A84XOV; Biospherix, Redfield, N.Y.) produced brief reductions in housing chamber ambient oxygen levels from 21% to 10% for 5 sec every 90 sec, resulting in arterial oxyhemoglobin saturation fluctuations between 95-98% and 83-86%. Sham LTIH, with ambient FIO2 fluctuations from 21% to 19% every 90 sec, held arterial oxyhemoglobin values constant between 96-98%. Both conditions were produced for 10 hr of the lights-on period for a total of 8 wks. Humidity, ambient CO2 and environmental temperature were held constant. To determine if LTIH results in lasting increases in NADPH oxidase and microglial gene responses, real-time Taqman PCR was performed on laser-captured microdissections or macropunches of selected brain regions in mice exposed to sham LTIH or LTIH, two weeks into recovery to parallel sleep studies, using our methods, as previously published (12, 25). Real-time measurement of a NADPH oxidase subunit (p67^phox). To accomplish this, two weeks following conditions of either sham LTIH or LTIH, mice were perfused with PBS; brains were immediately frozen and sectioned (10 μm) for laser-capture microdissections of the following wake-active or hypoxia sensitive regions: frontal cortex (layer V), nucleus basalis […]/substantia inominata/horizontal diagonal band, hippocampus CA1, striatum, lateral hypothalamus, dorsal raphe nucleus, and locus coeruleus, or the following sleep-active adjacent brain regions: median septal diagonal band, medial preoptic area, and ventrolateral preoptic area, collecting 100 captures (40 μm diameter) per region in each mouse (n=6 mice/condition). RNA was purified and cDNA created for primer sets for primer/probe sets in Table 1, for Taqman real time PCR (SDS-7900HT, ABI). […] A second series of mice used for LTIH gene responses were gp91^phox-/- and +/+ mice exposed to either sham LTIH or LTIH for proinflammatory responses. […]

[6] = apocynin 3 mg/kg/day throughout LTIH

**Q.** COc1cc(C(C)=O)ccc1O [apocynin, 4-hydroxy-3′-methoxy-acetophenon] was tested. Which “reduction in iNOS activity, apocynin treated vs. untreated mice” value ([1]; LTIH) did it give?
**A.** 60%

**Q.** What about the “LTIH increase in iNOS activity” value [1] of the same compound?
**A.** prevented the LTIH increase in iNOS activity

**Q.** And the “LTIH increase in iNOS activity” value ([1]; listed as Apocynin)?
**A.** prevents the anticipated LTIH increase in iNOS activity

**Q.** What about the “baseline (sham LTIH) iNOS activity, relative to saline therapy” value ([1]; sham LTIH) of the same compound?
**A.** no effect

**Q.** And the “reduction in iNOS mRNA” value [2]?
**A.** 94%

**Q.** What about the NREMS time ([3]; apocynin 3 mg/kg/day by osmotic pump throughout 8 wks LTIH, relative to saline and DMSO vehicle) of the same compound?
**A.** reduced NREMS time

**Q.** What about the “wake time/24 hr” value ([3]; apocynin 3 mg/kg/day by osmotic pump throughout 8 wks LTIH, relative to saline and DMSO vehicle, 2 wk into recovery) of the same compound?
**A.** increased wake times; also recorded: prevented LTIH-induced impaired wakefulness and hypersomnolence

**Q.** What about the “sleep latency vs WT mice without intervention or sham LTIH” value [3, 6] of the same compound?
**A.** not significantly different

**Q.** And the sleep latency [3, 6]?
**A.** significantly higher than LTIH DMSO vehicle-treated mice

**Q.** What about the sleep latency ([3]; apocynin 3 mg/kg/day throughout LTIH, listed as Apocynin) of the same compound?
**A.** prevented LTIH reduced sleep latency

**Q.** What about the “COX-2 gene expression, reduction relative to sham LTIH” value [4] of the same compound?
**A.** 65%

**Q.** And the “LTIH COX-2 response” value [4]?
**A.** completely blocked the LTIH COX-2 response

**Q.** What about the “LTIH increase in TNF-α gene expression (vs sham LTIH)” value ([5]; apocynin throughout LTIH) of the same compound?
**A.** completely prevented the increases in TNF-α gene expression

**Q.** And the “TNF-α response as % of the saline LTIH response” value ([5]; apocynin throughout LTIH)?
**A.** 7%

**Q.** What about the “LTIH TNF-α response, Apo vs. DMSO, % lower” value ([5]; apocynin vs DMSO vehicle during LTIH) of the same compound?
**A.** 73%
